In BigSolDB 2.1:

[1] = in tetrachloromethane, 268.15 K
[2] = in tetrachloromethane, 273.15 K
[3] = in tetrachloromethane, 278.15 K
[4] = in tetrachloromethane, 288.15 K
[5] = in tetrachloromethane, 298.15 K
[6] = in tetrachloromethane, 308.15 K
[7] = in tetrachloromethane, 318.15 K

Q: For `N#Cc1cccnc1`, which solubility (mole fraction) (in acetone, 268.15 K) is on record?
A: The solubility (mole fraction) was 0.247.

Q: What about the solubility (mole fraction) (in acetone, 273.15 K) of the same compound?
A: Its solubility (mole fraction) is 0.29.

Q: And the solubility (mole fraction) (in acetone, 278.15 K)?
A: The solubility (mole fraction) was 0.329.

Q: And the solubility (mole fraction) (in acetone, 288.15 K)?
A: The solubility (mole fraction) was 0.438.

Q: And the solubility (mole fraction) (in acetone, 298.15 K)?
A: Its solubility (mole fraction) is 0.541.

Q: And the solubility (mole fraction) (in acetone, 308.15 K)?
A: The solubility (mole fraction) was 0.664.

Q: What about the solubility (mole fraction) (in acetone, 318.15 K) of the same compound?
A: Its solubility (mole fraction) is 0.833.

Q: And the solubility (mole fraction) (in ethanol, 268.15 K)?
A: Its solubility (mole fraction) is 0.0429.

Q: What about the solubility (mole fraction) (in ethanol, 273.15 K) of the same compound?
A: The solubility (mole fraction) was 0.0593.

Q: And the solubility (mole fraction) (in ethanol, 278.15 K)?
A: The solubility (mole fraction) was 0.0903.

Q: And the solubility (mole fraction) (in ethanol, 288.15 K)?
A: The solubility (mole fraction) was 0.201.

Q: What about the solubility (mole fraction) (in ethanol, 298.15 K) of the same compound?
A: The solubility (mole fraction) was 0.339.

Q: What about the solubility (mole fraction) (in ethanol, 308.15 K) of the same compound?
A: The solubility (mole fraction) was 0.491.

Q: And the solubility (mole fraction) (in ethanol, 318.15 K)?
A: The solubility (mole fraction) was 0.627.

Q: What about the solubility (mole fraction) (in ethyl acetate, 268.15 K) of the same compound?
A: The solubility (mole fraction) was 0.209.

Q: And the solubility (mole fraction) (in ethyl acetate, 273.15 K)?
A: The solubility (mole fraction) was 0.247.

Q: What about the solubility (mole fraction) (in ethyl acetate, 278.15 K) of the same compound?
A: Its solubility (mole fraction) is 0.282.

Q: What about the solubility (mole fraction) (in ethyl acetate, 288.15 K) of the same compound?
A: Its solubility (mole fraction) is 0.375.

Q: And the solubility (mole fraction) (in ethyl acetate, 298.15 K)?
A: Its solubility (mole fraction) is 0.478.

Q: What about the solubility (mole fraction) (in ethyl acetate, 308.15 K) of the same compound?
A: The solubility (mole fraction) was 0.63.

Q: And the solubility (mole fraction) (in ethyl acetate, 318.15 K)?
A: Its solubility (mole fraction) is 0.803.

Q: And the solubility (mole fraction) (in isobutanol, 268.15 K)?
A: The solubility (mole fraction) was 0.028.

Q: What about the solubility (mole fraction) (in isobutanol, 273.15 K) of the same compound?
A: Its solubility (mole fraction) is 0.0396.

Q: What about the solubility (mole fraction) (in isobutanol, 278.15 K) of the same compound?
A: Its solubility (mole fraction) is 0.0702.

Q: And the solubility (mole fraction) (in isobutanol, 288.15 K)?
A: Its solubility (mole fraction) is 0.17.

Q: And the solubility (mole fraction) (in isobutanol, 298.15 K)?
A: The solubility (mole fraction) was 0.3.

Q: What about the solubility (mole fraction) (in isobutanol, 308.15 K) of the same compound?
A: Its solubility (mole fraction) is 0.435.

Q: What about the solubility (mole fraction) (in isobutanol, 318.15 K) of the same compound?
A: Its solubility (mole fraction) is 0.6.

Q: And the solubility (mole fraction) (in methanol, 268.15 K)?
A: Its solubility (mole fraction) is 0.0877.

Q: And the solubility (mole fraction) (in methanol, 273.15 K)?
A: Its solubility (mole fraction) is 0.111.

Q: What about the solubility (mole fraction) (in methanol, 278.15 K) of the same compound?
A: The solubility (mole fraction) was 0.153.

Q: And the solubility (mole fraction) (in methanol, 288.15 K)?
A: Its solubility (mole fraction) is 0.267.

Q: What about the solubility (mole fraction) (in methanol, 298.15 K) of the same compound?
A: Its solubility (mole fraction) is 0.404.

Q: And the solubility (mole fraction) (in methanol, 308.15 K)?
A: Its solubility (mole fraction) is 0.541.

Q: What about the solubility (mole fraction) (in methanol, 318.15 K) of the same compound?
A: The solubility (mole fraction) was 0.726.

Q: And the solubility (mole fraction) (in n-butanol, 268.15 K)?
A: Its solubility (mole fraction) is 0.025.

Q: And the solubility (mole fraction) (in n-butanol, 273.15 K)?
A: The solubility (mole fraction) was 0.0393.

Q: And the solubility (mole fraction) (in n-butanol, 278.15 K)?
A: The solubility (mole fraction) was 0.0645.

Q: What about the solubility (mole fraction) (in n-butanol, 288.15 K) of the same compound?
A: Its solubility (mole fraction) is 0.164.

Q: And the solubility (mole fraction) (in n-butanol, 298.15 K)?
A: Its solubility (mole fraction) is 0.275.

Q: What about the solubility (mole fraction) (in n-butanol, 308.15 K) of the same compound?
A: Its solubility (mole fraction) is 0.427.

Q: What about the solubility (mole fraction) (in n-butanol, 318.15 K) of the same compound?
A: Its solubility (mole fraction) is 0.577.

Q: And the solubility (mole fraction) (in n-propanol, 268.15 K)?
A: The solubility (mole fraction) was 0.0434.

Q: What about the solubility (mole fraction) (in n-propanol, 273.15 K) of the same compound?
A: Its solubility (mole fraction) is 0.0658.

Q: And the solubility (mole fraction) (in n-propanol, 278.15 K)?
A: Its solubility (mole fraction) is 0.0976.

Q: And the solubility (mole fraction) (in n-propanol, 288.15 K)?
A: The solubility (mole fraction) was 0.214.

Q: And the solubility (mole fraction) (in n-propanol, 298.15 K)?
A: The solubility (mole fraction) was 0.348.

Q: And the solubility (mole fraction) (in n-propanol, 308.15 K)?
A: The solubility (mole fraction) was 0.5.

Q: What about the solubility (mole fraction) (in n-propanol, 318.15 K) of the same compound?
A: The solubility (mole fraction) was 0.643.

Q: And the solubility (mole fraction) [1]?
A: Its solubility (mole fraction) is 0.0098.

Q: And the solubility (mole fraction) [2]?
A: Its solubility (mole fraction) is 0.0152.

Q: What about the solubility (mole fraction) [3] of the same compound?
A: Its solubility (mole fraction) is 0.024.

Q: What about the solubility (mole fraction) [4] of the same compound?
A: The solubility (mole fraction) was 0.095.

Q: What about the solubility (mole fraction) [5] of the same compound?
A: Its solubility (mole fraction) is 0.239.

Q: What about the solubility (mole fraction) [6] of the same compound?
A: Its solubility (mole fraction) is 0.393.

Q: And the solubility (mole fraction) [7]?
A: The solubility (mole fraction) was 0.568.

Q: With `N#Cc1ccncc1` as the compound, how does the solubility (mole fraction) (in acetone, 268.15 K) read?
A: Its solubility (mole fraction) is 0.117.

Q: And the solubility (mole fraction) (in acetone, 273.15 K)?
A: The solubility (mole fraction) was 0.134.

Q: And the solubility (mole fraction) (in acetone, 278.15 K)?
A: Its solubility (mole fraction) is 0.155.

Q: And the solubility (mole fraction) (in acetone, 288.15 K)?
A: The solubility (mole fraction) was 0.213.

Q: What about the solubility (mole fraction) (in acetone, 298.15 K) of the same compound?
A: The solubility (mole fraction) was 0.275.

Q: What about the solubility (mole fraction) (in acetone, 308.15 K) of the same compound?
A: Its solubility (mole fraction) is 0.356.

Q: What about the solubility (mole fraction) (in acetone, 318.15 K) of the same compound?
A: The solubility (mole fraction) was 0.46.

Q: What about the solubility (mole fraction) (in ethanol, 268.15 K) of the same compound?
A: Its solubility (mole fraction) is 0.0065.

Q: And the solubility (mole fraction) (in ethanol, 273.15 K)?
A: Its solubility (mole fraction) is 0.016.

Q: And the solubility (mole fraction) (in ethanol, 278.15 K)?
A: The solubility (mole fraction) was 0.0179.

Q: What about the solubility (mole fraction) (in ethanol, 288.15 K) of the same compound?
A: The solubility (mole fraction) was 0.0367.

Q: And the solubility (mole fraction) (in ethanol, 298.15 K)?
A: Its solubility (mole fraction) is 0.0706.

Q: What about the solubility (mole fraction) (in ethanol, 308.15 K) of the same compound?
A: Its solubility (mole fraction) is 0.136.

Q: And the solubility (mole fraction) (in ethanol, 318.15 K)?
A: Its solubility (mole fraction) is 0.273.

Q: What about the solubility (mole fraction) (in ethyl acetate, 268.15 K) of the same compound?
A: Its solubility (mole fraction) is 0.106.

Q: And the solubility (mole fraction) (in ethyl acetate, 273.15 K)?
A: The solubility (mole fraction) was 0.121.

Q: And the solubility (mole fraction) (in ethyl acetate, 278.15 K)?
A: Its solubility (mole fraction) is 0.142.

Q: And the solubility (mole fraction) (in ethyl acetate, 288.15 K)?
A: Its solubility (mole fraction) is 0.203.

Q: And the solubility (mole fraction) (in ethyl acetate, 298.15 K)?
A: Its solubility (mole fraction) is 0.261.

Q: What about the solubility (mole fraction) (in ethyl acetate, 308.15 K) of the same compound?
A: The solubility (mole fraction) was 0.343.

Q: And the solubility (mole fraction) (in ethyl acetate, 318.15 K)?
A: Its solubility (mole fraction) is 0.437.

Q: What about the solubility (mole fraction) (in isobutanol, 268.15 K) of the same compound?
A: Its solubility (mole fraction) is 0.0133.

Q: What about the solubility (mole fraction) (in isobutanol, 273.15 K) of the same compound?
A: The solubility (mole fraction) was 0.0176.

Q: What about the solubility (mole fraction) (in isobutanol, 278.15 K) of the same compound?
A: Its solubility (mole fraction) is 0.0229.

Q: What about the solubility (mole fraction) (in isobutanol, 288.15 K) of the same compound?
A: Its solubility (mole fraction) is 0.0469.

Q: What about the solubility (mole fraction) (in isobutanol, 298.15 K) of the same compound?
A: The solubility (mole fraction) was 0.108.

Q: What about the solubility (mole fraction) (in isobutanol, 308.15 K) of the same compound?
A: Its solubility (mole fraction) is 0.172.

Q: What about the solubility (mole fraction) (in isobutanol, 318.15 K) of the same compound?
A: The solubility (mole fraction) was 0.304.

Q: And the solubility (mole fraction) (in methanol, 268.15 K)?
A: Its solubility (mole fraction) is 0.0245.

Q: What about the solubility (mole fraction) (in methanol, 273.15 K) of the same compound?
A: Its solubility (mole fraction) is 0.0302.

Q: And the solubility (mole fraction) (in methanol, 278.15 K)?
A: Its solubility (mole fraction) is 0.0361.

Q: What about the solubility (mole fraction) (in methanol, 288.15 K) of the same compound?
A: Its solubility (mole fraction) is 0.062.

Q: And the solubility (mole fraction) (in methanol, 298.15 K)?
A: Its solubility (mole fraction) is 0.0954.

Q: What about the solubility (mole fraction) (in methanol, 308.15 K) of the same compound?
A: The solubility (mole fraction) was 0.173.

Q: And the solubility (mole fraction) (in methanol, 318.15 K)?
A: Its solubility (mole fraction) is 0.304.

Q: What about the solubility (mole fraction) (in n-butanol, 268.15 K) of the same compound?
A: The solubility (mole fraction) was 0.0141.

Q: And the solubility (mole fraction) (in n-butanol, 273.15 K)?
A: Its solubility (mole fraction) is 0.0149.

Q: What about the solubility (mole fraction) (in n-butanol, 278.15 K) of the same compound?
A: The solubility (mole fraction) was 0.0216.

Q: And the solubility (mole fraction) (in n-butanol, 288.15 K)?
A: The solubility (mole fraction) was 0.0471.

Q: What about the solubility (mole fraction) (in n-butanol, 298.15 K) of the same compound?
A: Its solubility (mole fraction) is 0.0898.

Q: What about the solubility (mole fraction) (in n-butanol, 308.15 K) of the same compound?
A: Its solubility (mole fraction) is 0.151.

Q: And the solubility (mole fraction) (in n-butanol, 318.15 K)?
A: The solubility (mole fraction) was 0.284.

Q: And the solubility (mole fraction) (in n-propanol, 268.15 K)?
A: Its solubility (mole fraction) is 0.0246.

Q: What about the solubility (mole fraction) (in n-propanol, 273.15 K) of the same compound?
A: Its solubility (mole fraction) is 0.0271.

Q: And the solubility (mole fraction) (in n-propanol, 278.15 K)?
A: Its solubility (mole fraction) is 0.0396.

Q: What about the solubility (mole fraction) (in n-propanol, 288.15 K) of the same compound?
A: The solubility (mole fraction) was 0.07.

Q: And the solubility (mole fraction) (in n-propanol, 298.15 K)?
A: Its solubility (mole fraction) is 0.129.

Q: What about the solubility (mole fraction) (in n-propanol, 308.15 K) of the same compound?
A: The solubility (mole fraction) was 0.19.

Q: And the solubility (mole fraction) (in n-propanol, 318.15 K)?
A: The solubility (mole fraction) was 0.298.

Q: What about the solubility (mole fraction) [1] of the same compound?
A: The solubility (mole fraction) was 0.0129.

Q: And the solubility (mole fraction) [2]?
A: Its solubility (mole fraction) is 0.0194.

Q: What about the solubility (mole fraction) [3] of the same compound?
A: The solubility (mole fraction) was 0.0292.

Q: And the solubility (mole fraction) [4]?
A: The solubility (mole fraction) was 0.0396.

Q: And the solubility (mole fraction) [5]?
A: Its solubility (mole fraction) is 0.0839.

Q: What about the solubility (mole fraction) [6] of the same compound?
A: Its solubility (mole fraction) is 0.151.

Q: And the solubility (mole fraction) [7]?
A: The solubility (mole fraction) was 0.287.
